SMILES strings stand for the structures. pEC50: −log10 of the molar value.

In the assay the target is T1, human recombinant mGluR5 (Homo sapiens, UniProt P41594).
T1 construct: expressed in transfected cells; host or cells: HEK 293
T1 sequence (P41594 21-1212): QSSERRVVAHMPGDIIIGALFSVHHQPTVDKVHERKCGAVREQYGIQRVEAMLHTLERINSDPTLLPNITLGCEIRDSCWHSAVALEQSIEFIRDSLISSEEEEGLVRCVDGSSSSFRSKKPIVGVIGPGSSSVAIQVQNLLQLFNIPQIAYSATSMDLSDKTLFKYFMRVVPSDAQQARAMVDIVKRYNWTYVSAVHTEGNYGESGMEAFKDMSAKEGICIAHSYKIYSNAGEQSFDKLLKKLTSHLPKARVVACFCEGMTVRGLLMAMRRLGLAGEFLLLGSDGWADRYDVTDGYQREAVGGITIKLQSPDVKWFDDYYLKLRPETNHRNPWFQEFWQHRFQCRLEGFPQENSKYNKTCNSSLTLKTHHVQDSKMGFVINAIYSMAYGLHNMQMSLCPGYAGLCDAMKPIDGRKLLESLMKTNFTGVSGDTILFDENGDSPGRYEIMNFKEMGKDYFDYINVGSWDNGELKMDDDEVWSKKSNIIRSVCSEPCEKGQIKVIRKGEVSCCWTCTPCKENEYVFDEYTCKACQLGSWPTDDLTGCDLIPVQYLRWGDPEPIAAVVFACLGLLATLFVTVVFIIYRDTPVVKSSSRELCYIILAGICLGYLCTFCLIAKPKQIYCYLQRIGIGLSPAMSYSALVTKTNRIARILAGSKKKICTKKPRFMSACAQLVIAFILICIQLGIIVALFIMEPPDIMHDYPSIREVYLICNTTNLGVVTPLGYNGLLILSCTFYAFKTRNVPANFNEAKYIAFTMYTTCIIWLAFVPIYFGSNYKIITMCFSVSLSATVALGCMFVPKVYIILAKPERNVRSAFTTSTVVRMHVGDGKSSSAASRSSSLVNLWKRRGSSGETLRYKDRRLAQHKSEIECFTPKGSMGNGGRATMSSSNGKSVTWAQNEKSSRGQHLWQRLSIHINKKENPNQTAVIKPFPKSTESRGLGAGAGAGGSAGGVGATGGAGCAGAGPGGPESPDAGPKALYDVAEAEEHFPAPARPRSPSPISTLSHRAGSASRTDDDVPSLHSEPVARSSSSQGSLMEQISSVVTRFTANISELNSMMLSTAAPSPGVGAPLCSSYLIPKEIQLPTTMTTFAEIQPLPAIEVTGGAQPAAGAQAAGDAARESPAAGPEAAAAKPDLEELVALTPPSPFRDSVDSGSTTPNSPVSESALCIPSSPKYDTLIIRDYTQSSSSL
Briefly: positive modulation of mGluR5, calcium based FLIPR assay. Particulars: HEK 293 cell line expressing human recombinant mGluR5; EC50 of the modulation from peak Ca fluorescence signal after glutamate at approx. 5% basal stimulation. In outline:
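HEK 293 cells expressing human recombinant mGluR5, Calcium-4 dye-loaded in Ringer solution pH 7.4. Compound (1% DMSO final) preincubated 5 min, then glutamate at ~5% of maximal effect added; peak Ca2+ fluorescence gives EC50 by nonlinear regression, normalized to DMSO (100%) and 10 μM CDPPB (200%) controls.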
By pEC50 is commonly meant the negative decadic logarithm of the EC50, by convention in mol/L. Turning to `CCCc1cc(-c2ccc(F)c(C)c2)nn1CC(=O)N1CC=C(c2ncc(C)o2)CC1` [Example 7.02.206], the pEC50 was 8.22.

As for `COc1cc2c(cc1OC)CCN(C(=O)Cn1nc(-c3ccc(F)c(C)c3)cc1-c1ccccc1)CC2` [Example 7.01.079], the negative logarithm of the EC50 (pEC50) is 6.35.

As for `CCc1cc(-c2ccc(F)c(C)c2)nn1CC(=O)N1CCc2cc(-c3ccccc3)nnc2CC1` [Example 7.01.066], the pEC50 is 6.82.

`Cc1coc(N2CCN(C(=O)Cn3nc(-c4ccc(F)c(C)c4)cc3-c3ccccc3)CC2)n1` [Example 7.02.165]: the pEC50 was 7.74.

As to `CCc1cc(-c2ccc(F)c(C)c2)nn1CC(=O)N1CCc2ccsc2CC1` [Example 7.01.071], the pEC50 was 6.63.

Regarding `CCCc1cc(-c2ccc(F)c(C)c2)nn1CC(=O)N1CCC(c2nnc(C)o2)CC1` [Example 7.02.210], the pEC50 is 6.84.

Turning to `COc1ccc(-c2cc(C(C)C)n(CC(=O)N3CCc4nc(N)sc4CC3)n2)cc1` [Example 7.02.038], the pEC50 is 6.68.

As to `COc1cccc(C2=CCN(C(=O)Cn3nc(-c4ccc(F)c(C)c4)cc3-c3ccccc3)CC2)c1` [Example 7.02.136], the pEC50 was 6.85.

Take `CCc1cc(-c2ccc(F)c(C)c2)nn1CC(=O)N1CCC(c2ncc(C)o2)CC1` [Example 7.02.207]: the pEC50 is 7.15.

Turning to `COc1ccc(-c2cc(-c3ccccc3)n(CC(=O)N3CCc4nc(C)sc4CC3)n2)cc1C` [Example 7.02.241], the pEC50 is 7.12.

Consider `O=C(Cn1nc(-c2ccccc2)cc1-c1ccccc1)N1CCN(c2cccc(Br)c2)C(=O)C1` [Example 7.01.013], for which the pEC50 was 6.21.

In the case of `COc1ccc2c(c1)CN(C(=O)Cn1nc(-c3ccccc3)cc1-c1ccccc1)CC2` [Example 7.01.007], the pEC50 is 5.81.

`CCc1cc(-c2ccc(F)c(C)c2)nn1CC(=O)N1CCc2ccsc2C1` [Example 7.01.076]: the pEC50 was 6.39.

Regarding `O=C(Cn1nc(-c2ccccc2)cc1-c1ccccc1)N1CCN(c2nnc(C(F)(F)F)s2)CC1` [Example 7.01.037], the pEC50 was 6.73.

As for `Cc1csc(N2CCN(C(=O)Cn3nc(-c4ccccc4)cc3-c3ccccc3)CC2)n1` [Example 7.01.003], the pEC50 is 5.75.

Turning to `COc1ccc(-c2cc(C(C)C)n(CC(=O)N3Cc4nc(C)sc4C3)n2)cc1` [Example 7.02.045], the pEC50 is 5.85.

In the case of `CC(=O)Nc1ccc2c(c1)CCN(C(=O)Cn1nc(-c3ccc(F)c(C)c3)cc1-c1ccccc1)CC2` [Example 7.01.097], the pEC50 is 6.96.

As to `Cc1cc(-c2cc(-c3ccccc3)n(CC(=O)N3CCc4cnc(Nc5ccccc5)nc4CC3)n2)ccc1F` [Example 7.01.080], the pEC50 was 6.56.

Take `Cc1nc2c(s1)CN(C(=O)Cn1nc(-c3ccccc3)cc1-c1ccccc1)C2` [Example 7.01.005]: the pEC50 is 6.42.

On to `Cc1nnc(N2CCN(C(=O)Cn3nc(-c4ccc(OC(F)F)cn4)cc3-c3ccccc3)CC2)o1` [Example 7.02.234], for which the pEC50 was 6.70.

On to `COc1ccc(-c2cc(-c3ccccc3)n(CC(=O)N3CCN(c4noc(C)n4)CC3)n2)cc1C` [Example 7.02.232], for which the pEC50 was 6.98.

Consider `COc1cc(-c2cc(C(C)C)n(CC(=O)N3CCc4nc(N)sc4CC3)n2)ccc1F` [Example 7.02.062], for which the pEC50 was 6.49.

For the compound `O=C(Cn1nc(-c2ccccc2)cc1-c1ccccc1)N1CCN(c2nccs2)CC1` [Example 7.01.043], the pEC50 is 7.40.

`CCc1cc(-c2ccc(F)c(C)c2)nn1CC(=O)N1CCN(c2noc(C)n2)CC1` [Example 7.02.196]: the pEC50 is 7.37.

Turning to `COc1ccc(-c2cc(-c3ccccc3)n(CC(=O)N3Cc4nc(C)sc4C3)n2)cc1C` [Example 7.02.233], the pEC50 was 6.55.

Take `Cc1ccc(NC2CCN(C(=O)Cn3nc(-c4ccccc4)cc3-c3ccccc3)CC2)c(C)c1` [Example 7.01.051]: the pEC50 is 5.84.

Consider `Cc1cc(-c2cc(C(C)C)n(CC(=O)N3CCc4nc(N)sc4CC3)n2)ccc1F` [Example 7.02.054], for which the pEC50 was 6.73.

On to `Cc1nc2c(o1)CN(C(=O)Cn1nc(-c3ccccc3)cc1-c1ccccc1)CC2` [Example 7.01.002], for which the pEC50 was 6.23.

Regarding `COc1ccc(-c2cc(C(C)C)n(CC(=O)N3CCN(c4cccc(OC)c4)C(=O)C3)n2)cc1` [Example 7.02.041], the pEC50 is 5.92.

Regarding `Cc1cnc(C2=CCN(C(=O)Cn3nc(-c4ccc(F)c(C)c4)cc3-c3ccccc3)CC2)nc1` [Example 7.02.102], the pEC50 was 7.57.

`CCc1cc(-c2ccc(F)cc2)nn1CC(=O)N1CCc2nc(N)sc2CC1` [Example 7.02.030]: the pEC50 was 5.75.

`COc1cc(-c2cc(-c3ccccc3)n(CC(=O)N3CCC(c4ncc(C)o4)CC3)n2)ccc1F` [Example 7.02.152]: the pEC50 is 7.17.

`CCc1cc(-c2cccc(C#N)c2)nn1CC(=O)N1CCC(c2ncc(C)o2)CC1` [Example 7.02.183]: the pEC50 was 6.48.

As for `COc1cnc(C2CCN(C(=O)Cn3nc(-c4ccc(C)c(C)c4)cc3-c3ccccc3)CC2)nc1` [Example 7.02.088], the pEC50 is 6.60.

Turning to `O=C(Cn1nc(-c2ccccc2)cc1-c1ccccc1)N1CCc2cc(F)ccc2C1` [Example 7.01.027], the pEC50 is 5.99.

Take `C=CCNC(=O)Nc1nc2c(s1)CN(C(=O)Cn1nc(-c3ccccc3)cc1-c1ccccc1)CC2` [Example 7.01.012]: the pEC50 is 6.08.

In the case of `CCc1cc(-c2cccc(C)c2)nn1CC(=O)N1Cc2nc(C)sc2C1` [Example 7.02.080], the pEC50 is 6.49.

In the case of `Cc1cccc(-c2cc(-c3ccccc3)n(CC(=O)N3CCc4nc(C)sc4CC3)n2)c1` [Example 7.02.198], the pEC50 is 8.22.

On to `CCc1nc2c(o1)CN(C(=O)Cn1nc(-c3ccc(F)c(C)c3)cc1CC)C2` [Example 7.02.256], for which the pEC50 is 7.96.

As to `CC(C)NC(=O)Nc1nc2c(s1)CN(C(=O)Cn1nc(-c3ccccc3)cc1-c1ccccc1)CC2` [Example 7.01.028], the pEC50 is 5.89.

With `COc1cccc(N2CCN(C(=O)Cn3nc(-c4cc(C)c(C)cn4)cc3-c3ccccc3)CC2=O)c1` [Example 7.02.064], the pEC50 is 6.75.

Consider `CC(=O)Nc1nc2c(s1)CCN(C(=O)Cn1nc(-c3ccccc3)cc1-c1ccccc1)CC2` [Example 7.01.021], for which the pEC50 is 5.82.

On to `CCc1cc(-c2ccc(F)c(C)c2)nn1CC(=O)N1CCN(c2nnc(C)o2)CC1` [Example 7.02.220], for which the pEC50 is 6.54.

Turning to `Cc1nc2c(s1)CCN(C(=O)Cn1nc(-c3ccc(F)cn3)cc1-c1ccc(F)cc1)CC2` [Example 7.02.061], the pEC50 was 7.02.

Consider `Cc1ccc(-c2cc(-c3ccccc3)n(CC(=O)N3Cc4nc(C)sc4C3)n2)nc1` [Example 7.02.118], for which the pEC50 was 6.90.

Consider `Cc1cc(-c2cc(-c3ccccc3)n(CC(=O)N3CCN(c4nccs4)CC3)n2)ccc1F` [Example 7.02.216], for which the pEC50 is 8.22.

In the case of `Nc1nc2c(s1)CCN(C(=O)Cn1nc(-c3ccccc3)cc1-c1ccccc1)CC2` [Example 7.01.023], the pEC50 was 6.78.

Consider `Cc1nc2c(s1)CN(C(=O)Cn1nc(-c3ccc(C)c(C)c3)cc1-c1ccccc1)C2` [Example 7.02.090], for which the pEC50 is 7.39.

In the case of `O=C(Cn1nc(-c2ccccc2)cc1-c1ccccc1)N1CCN(c2nccc3occc23)CC1` [Example 7.01.049], the pEC50 is 6.19.

`Cc1nc2c(s1)CN(C(=O)Cn1nc(-c3ccc(OC(F)F)cn3)cc1-c1ccccc1)C2` [Example 7.02.237]: the pEC50 is 6.95.

Take `Cc1cc(-c2cc(-c3ccccc3)n(CC(=O)N3CCc4nc(N)sc4CC3)n2)ccc1F` [Example 7.02.023]: the pEC50 is 7.92.

With `Cc1nc2c(o1)CN(C(=O)Cn1nc(-c3ccc(F)c(C)n3)cc1-c1ccccc1)C2` [Example 7.02.173], the pEC50 was 7.42.

As for `CCc1cc(-c2ccc(F)c(C)c2)nn1CC(=O)N1CCc2ncsc2CC1` [Example 7.01.073], the pEC50 is 7.08.

Regarding `Cc1cc(-c2cc(-c3ccccc3)n(CC(=O)N3CCc4nc(N)sc4C3)n2)ccc1F` [Example 7.01.093], the pEC50 is 7.46.

In the case of `CCc1cc(-c2ccc(F)c(C)c2)nn1CC(=O)N1CCc2nc(N)sc2C1` [Example 7.01.068], the pEC50 is 6.63.

On to `CCc1cc(-c2ccc(F)c(C)c2)nn1CC(=O)N1CCc2nc(NC(C)=O)sc2CC1` [Example 7.01.069], for which the pEC50 was 6.42.
